Results: US20130190324A1, “TOPICAL OCULAR DRUG DELIVERY” (The Regents of the University of Colorado, a body corporate, priority 2011, published 2013)

What was measured:
[1] = system: calf sclera-choroid-RPE (SCRPE); assay: In vitro transport of substrate cassette across normoxic and hypoxic calf SCRPE; conditions: for apparent permeability (Papp) across hypoxic vs normoxic tissue (in words) / transport across hypoxic vs normoxic tissue (in words): calf SCRPE; for transport across hypoxic vs normoxic tissue (in words): cassette 100 μM
Source text: (§1) Animals used in this study were those that were sacrificed as part of other experiments approved by the Institutional Animal Care Committee of the Colorado State University (Fort Collins) and University of Colorado Anschutz Medical campus. Hypoxic and normoxic calf eyes were obtained from the Department of Physiology, School of Veterinary Medicine, Colorado State University (Fort Collins, Colo.). Briefly, 1 day old male Holstein calves (n=4) were kept in hypobaric hypoxic chambers (PB=445 mm Hg) for 2 weeks. For control experiment, age matched calves (n=4) were kept at ambient altitude (PB=650 mm Hg) and normoxia for two weeks. Hypoxic and normoxic rat eyes were obtained from the Department of Medicine, University of Colorado Anschutz Medical campus (Aurora, Colo.). Sprague Dawley rats (n=4) were maintained in hypobaric hypoxic chambers (PB=380 mm Hg) for 6 weeks and age matched controls were kept at ambient pressure and normoxia.
(§2) In vitro transport studies across hypoxic and control calf cornea and sclera-choroid-RPE (SCRPE) were carried using cassette dosing approach. A cassette of drug transporter substrates, Gly-Sar (PEPT), valacylovir (ATB^0+), MPP^+ (OCT), and phenylacetic acid (MCT) at a concentration of 100 μM each in assay buffer was prepared. Briefly, the calf eyes were harvested immediately after euthanasia and transferred to the laboratory on ice. Upon arrival in the lab, the eyes were washed with assay buffer and cleaned from muscle and unwanted tissues. Anterior and posterior parts were separated by circumferential cut at the limbus. Vitreous was removed and the neural retina was separated from the choroid-RPE by filling the eye cup with assay buffer. The retina afloat in assay buffer was isolated and the eye cup was divided into two pieces (˜1.5×1.5 cm) of sclera-choroid-RPE. Isolated tissues were mounted on modified Ussing chambers (Navicyte, Sparks, Nev.) such that the episcleral side of SCRPE or epithelial side of cornea was facing the donor chamber and retinal side or endothelial side of the cornea was facing the receiver chamber. The chambers were filled with 1.5 ml of assay buffer at 37° C. with (donor side) or without (receiver side) the cocktail of drug transporter substrates. For the study of effect of transporter inhibitors, cocktail mixture (500 μM) of transporter inhibitors was added on both donor and acceptor sides.
(§3) During the transport study, the bathing fluids were maintained at 37° C. using circulating warm water. The pH of the fluids was maintained at pH 7.4 using 95% air-5% CO2 aeration. Samples were collected (200 μL) from receiver side every hour for 6 hours and the removed volume was replaced with fresh assay buffer pre-equilibrated to 37° C. Drug levels were analyzed using a LC-MS/MS assay. Permeation data were corrected for dilution of the receiver concentrations with sample volume replenishment.
(§4) Analyte concentrations in transport study samples were measured using LC-MS/MS method after 5-fold dilution with acetonitrile to reduce the salt concentrations. A cassette analysis method was developed for simultaneous analysis of Gly-Sar, valacylovir, and MPP Phenyl acetic acid was analyzed separately with a negative ionization method and a normal phase separation method. An API-3000 triple quadrupole mass spectrometry (Applied Biosystems, Foster City, Calif., USA) coupled with a PerkinElmer series-200 liquid chromatography (Perkin Elmer, Waltham, Mass., USA) system was used for analysis. Gly-Sar, valacylovir and MPP were separated on Supelco C-5 column (2.1×10 mm, 3 μm) using water containing 0.1% formic acid (A) and acetonitrile:methanol (50:50 v/v) containing 0.1% formic acid (B) as mobile phase. A linear gradient elution at a flow rate of 0.3 ml/min with a total run time of 9 min was employed. Phenyl acetic acid was separated in normal phase separation mode on Obelisc-N silica column (2.1×10 mm, 3 μM) using 5 mM ammonium formate at pH 3.5 (A) and acetonitrile (B) as mobile phase.

calf cornea = assay: In vitro transport of substrate cassette across normoxic and hypoxic calf cornea; conditions: for apparent permeability (Papp) across hypoxic vs normoxic tissue (in words) / transport across hypoxic vs normoxic tissue (in words): calf cornea; for transport across hypoxic vs normoxic tissue (in words): cassette 100 μM
Source text: as §1, §2, §3, §4

[2] = system: human sclera-choroid-RPE (SCRPE); assay: In vitro transport of transporter substrate cassette across human sclera-choroid-RPE; conditions: human SCRPE; for sclera to retina transport in presence of transporter specific inhibitor (in words): inhibitor cocktail 500 μM; for sclera to retina transport compared with retina to sclera transport (in words): substrate cassette 100 μM
Method: (§5) In vitro transport studies across human cornea and sclera-choroid-RPE (SCRPE) were carried out according to previously published method using the cassette dosing approach. Briefly, cassette of drug transporter substrate including Gly-Sar (PEPT), L-tryptophan (ATB^0+), MPP^+ (OCT), and phenyl acetic acid (MCT) at concentration of 100 μM in assay buffer was prepared. Briefly, the human eyes were washed with assay buffer and cleaned from muscle and conjunctiva tissues, and anterior and posterior parts were separated by giving circumferential cut behind the limbus. Small sclera part was left with cornea, which helps in mounting of cornea on Ussing chambers. Neural retina was separated from the choroid-RPE by filling the eye cup with assay buffer, and floating retina was collected. After separation of retina, eye cup was divided into two rectangular pieces (˜1.5×1.5 cm) of sclera-choroid-RPE. Isolated tissues were mounted on modified Ussing chambers (Navicyte, Sparks, Nev.) such that the episcleral side of SCRPE or epithelial side of cornea was facing the donor chamber and retinal side or endothelial side of cornea is facing the receiver chamber. To study the effect of directionality on transport, one set of Ussing chambers mounted so that sclera side facing the donor side and another set was mounted so that choroid-RPE facing the donor side. The effect of directionality of transport across cornea was not evaluated. The chambers were filled with 1.5 ml of assay buffer with (donor side) or without (receiver side) the cocktail of drug transporter substrates. For study of effect of transporter inhibitors, cocktail mixture (500 μM) of transporter inhibitor was added on both donor and acceptor side.
(§6) During the transport study, the bathing fluids were maintained at 37° C. using a circulating warm water and pH 7.4 using 95% air-5% CO2 aeration. Samples were collected (200 μL) form receiver side every hour for 6 hr and the lost volume was compensated with fresh assay buffer pre-equilibrated at 37° C. The drug levels were analyzed using a LC-MS/MS assay. Permeation data were corrected for dilution of the receiver solution with sample volume replenishment.
Analytes concentrations in transport study samples were analyzed using LC-MS/MS method after 5-fold dilution with acetonitrile to reduce the salt concentrations. Cassette analysis method was developed for simultaneous analysis of Gly-Sar, L-tryptophan and MPP^+. Phenyl acetic acid was analyzed separately in negative ionization method and normal phase separation method. An API-3000 triple quadrupole mass spectrometry (Applied Biosystems, Foster City, Calif., USA) coupled with a PerkinElmer series-200 liquid chromatography (Perkin Elmer, Walthm, Mass., USA) system was used for analysis. Gly-Sar, L-tryptophan and MPP^+ were separated on Supelco C-5 column (2.1×10 mm, 3 μm) using water containing 0.1% formic acid (A) and acetonitrile:methanol (50:50 v/v) containing 0.1% formic acid (B) as mobile phase and a linear gradient elution at a flow rate of 0.3 ml/min with total run time of 9 min. Phenyl acetic acid was separated in normal phase separation mode using Obelisc-N silica column (2.1×10 mm, 3 μM) using 5 mM ammonium formate, pH 3.5 (A) and acetonitrile (B) as mobile phase in linear gradient mode at flow rate of 0.3 ml with total run time of 6 min. Gly-Sar, L-tryptophan, and MPP^+ were analyzed in positive ionization mode with following multiple reaction monitoring (MRM) transitions: 147→90 (Gly-Sar); 205→188 (L-tryptophan); 170→128 (MPP^+). Phenyl acetic acid was analyzed in negative ionization mode with following multiple reaction monitoring (MRM) transitions: 135→91 (Phenyl acetic acid).

human cornea = assay: In vitro transport of transporter substrate cassette across human cornea; conditions: for transport in presence of transporter inhibitor (in words): apical to basal, inhibitor cocktail 500 μM
Method: as §5, with “The effect of directionality of transport across cornea was not evaluated.” left out
as §6
Analytes concentrations in transport study samples were analyzed using LC-MS/MS method after 5-fold dilution with acetonitrile to reduce the salt concentrations. […] Phenyl acetic acid was analyzed separately in negative ionization method and normal phase separation method. […] Gly-Sar, L-tryptophan, and MPP^+ were analyzed in positive ionization mode with following multiple reaction monitoring (MRM) transitions: 147→90 (Gly-Sar); 205→188 (L-tryptophan); 170→128 (MPP^+). Phenyl acetic acid was analyzed in negative ionization mode with following multiple reaction monitoring (MRM) transitions: 135→91 (Phenyl acetic acid).

SMILES	apparent permeability (Papp) across hypoxic vs normoxic tissue (in words) [1]	transport across hypoxic vs normoxic tissue (in words) [1]	transport across hypoxic vs normoxic tissue (in words) ([1]; listed as MPP+)	decrease in cumulative % transport across hypoxic tissue ([1]; hypoxic vs normoxic calf SCRPE) [%]	apparent permeability (Papp) across hypoxic vs normoxic tissue (in words) (calf cornea)	transport across hypoxic vs normoxic tissue (in words) (calf cornea)	decrease in cumulative % transport across hypoxic tissue (calf cornea; hypoxic vs normoxic calf cornea) [%]	sclera to retina transport in presence of transporter specific inhibitor (in words) [2]	inhibition of sclera to retina transport in presence of specific inhibitors ([2]; inhibitor cocktail 500 μM (metformin for MPP+)) [fold]	sclera to retina transport compared with retina to sclera transport (in words) [2]	transport lower in presence of OCT inhibitor metformin (human cornea; human cornea) [fold]	transport in presence of transporter inhibitor (in words) (human cornea; human cornea)	transport across hypoxic vs normoxic tissue (in words) ([1]; listed as phenylacetic acid)	apparent permeability (Papp) across hypoxic vs normoxic tissue (in words) ([1]; listed as phenylacetic acid)	inward transport compared with outward transport (in words) (human cornea; cornea)
C[n+]1ccc(-c2ccccc2)cc1.[I-] [MPP^+, MPP^+ iodide]	significantly higher across normoxic SCRPE than hypoxic SCRPE	significantly decreased in hypoxic calf SCRPE	significantly higher across normoxic calf SCRPE than hypoxic calf SCRPE	61	significantly higher across normoxic cornea than hypoxic cornea	significantly higher across normoxic calf cornea than hypoxic calf cornea	49	significantly inhibited	1.7	significantly higher	2.6	significantly inhibited			
O=C(O)Cc1ccccc1 [phenyl acetic acid]	increased by several fold in hypoxic condition	increased by several fold in hypoxic condition			significantly higher across hypoxic cornea than normoxic cornea	significantly higher than normoxic cornea		no significant effect of inhibitor		retina to sclera transport was significantly higher than inward transport		significantly inhibited	significantly higher across hypoxic SCRPE than normoxic SCRPE	significantly higher across hypoxic SCRPE than normoxic SCRPE	significantly higher than outward transport
